Laboratory results: patent US12247017B2, “Herbicidal uracilpyridines” (BASF SE, priority 2019, dated 2025)

Columns and labels:
Details in all cases: application rate 16 g/ha, post-emergence method, scale from 0 to 100
AMARE = assay: greenhouse herbicidal activity, post-emergence, AMARE; format: in vivo, Amaranthus retroflexus
Excerpt: (§1) The seeds of the test plants were sown separately for each species. For the pre-emergence treatment, the active ingredients, which had been suspended or emulsified in water, were applied directly after sowing by means of finely distributing nozzles. The containers were irrigated gently to promote germination and growth and subsequently covered with transparent plastic hoods until the test plants had rooted. This cover caused uniform germination of the test plants, unless this had been impaired by the active ingredients. For the post-emergence treatment, the test plants were first grown to a height of 3 to 15 cm, depending on the plant habit, and only then treated with the active ingredients which had been suspended or emulsified in water. For this purpose, the test plants were either sown directly and grown in the same containers, or they were first grown separately as seedlings and transplanted into the test containers a few days prior to treatment. Depending on the species, the test plants were kept at 10-25° C. or 20-35° C., respectively. The test period extended over 2 to 4 weeks. During this time, the test plants were tended, and their response to the individual treatments was evaluated. Evaluation was carried out using a scale from 0 to 100. […]

CHEAL = assay: greenhouse herbicidal activity, post-emergence, CHEAL; format: in vivo, Chenopodium album
Excerpt: as §1

ECHCG = assay: greenhouse herbicidal activity, post-emergence, ECHCG; format: in vivo, Echinocloa crus-galli
Excerpt: as §1

SETVI = assay: greenhouse herbicidal activity, post-emergence, SETVI; format: in vivo, Setaria viridis
Excerpt: as §1

SMILES	herbicidal activity against AMARE (AMARE)	herbicidal activity against CHEAL (CHEAL)	herbicidal activity against ECHCG (ECHCG)	herbicidal activity against SETVI (SETVI)
COC(=O)CCNC(=O)C(C)Sc1nc(-n2c(=O)cc(C(F)(F)F)n(C)c2=O)c(F)cc1Cl (stereo not shown) [Example 1, Methyl 3-[2-[[3-chloro-5-fluoro-6-[3-methyl-2,6-dioxo-4-(trifluoromethyl)pyrimidin-1-yl]-2-pyridyl]sulfanyl]propanoylamino]propanoate]	very good herbicidal activity (a very good herbicidal activity is given at values of at least 85)	very good herbicidal activity (a very good herbicidal activity is given at values of at least 85)	very good herbicidal activity (a very good herbicidal activity is given at values of at least 85)	very good herbicidal activity (a very good herbicidal activity is given at values of at least 85)
CCOC(=O)CCNC(=O)COc1nc(-n2c(=O)cc(C(F)(F)F)n(C)c2=O)c(F)cc1Cl [Example 2]	very good herbicidal activity (a very good herbicidal activity is given at values of at least 85)	very good herbicidal activity (a very good herbicidal activity is given at values of at least 85)		very good herbicidal activity (a very good herbicidal activity is given at values of at least 85)
